Data taken from US5849484A, “In vitro assay for inhibitors of the intron self-splicing reaction in Pneumocystis carinii” (University of Medicine & Dentistry of NJ, priority 1995, dated 1998).

Tests used:
[1] = system: Group I self-splicing intron (ribozyme) from the 26S rRNA gene of Pneumocystis carinii, isolate Pc1; assay: In vitro self-splicing of the Group I intron, assayed by splicing of [32P]RNA precursor or by [alpha-32P]GTP incorporation; assay type: biochemical; settings: for inhibition of splicing of the 26S rRNA intron: result in words, 5 mM MgCl2, 100 μM GTP unless otherwise indicated, 37° C., 20 minutes; for mode of inhibition (kinetic analysis): relative to GTP/guanosine; for inhibition of splicing at 500 μM: inhibitor at 500 μM; for replacement of GTP in the splicing reaction: equal concentrations to GTP
Description: Polymerase chain reaction (PCR) amplification (56) of the intron from the 26S rRNA gene and a portion of the 5' and 3' flanking exons (660 nucleotides of amplified rRNA gene), between nucleotides 1963 and 2267 of 26S rRNA of isolate Pc1 was performed with primers 4208 (5'-[…]-3') (SEQ ID NO:33), whose first 17 nucleotides are a bacteriophage SP6 promoter (57), and 4358 (5'-GACGAGGCATTTGGCTACC-3') (SEQ ID NO:35) in a DNA Thermal Cycler (Perkin-Elmer-Cetus), under conditions recommended by the manufacturer. For some experiments a longer PCR product (1296 nucleotides of amplified rRNA gene) was generated by similar methods, using primers 4208 and 3734 (5'-[…]-3') to amplify the region between nucleotides 1963 and 2903 of 26S rRNA. Transcription of PCR product DNA (1 μg) by SP6 RNA polymerase to produce E1-I-E2 RNA precursor (1296 or 660 nucleotides in length) was carried out using the Riboprobe System II (Promega) under the recommended conditions.
Radioactive RNA precursor (1296 nucleotides, 1 nM) was incubated at 37° C. for 30 minutes in the presence of 50 mM Tris-HCl, pH 7.5, 0.4 mM spermidine, 4 units of RNasin, 100 μM guanosine triphosphate (GTP) and the indicated concentrations of MgCl2 in a volume of 10 μl. Reactions were terminated by addition of 10 μl of 8M urea containing 5 mM Na-EDTA, pH 8.0, and 0.025% each of bromphenol blue and xylene cyanol, followed by heating at 65° C. for 3 minutes and PAGE, with visualization by autoradiography. Lane M contains RNA standards (molecular weights 1.77, 1.52, 1.28, 0.78, 0.53, 0.40, 0.28, and 0.16 kd, BRL), 5'-labeled with ^32 p using bacteriophage T4 polynucleotide kinase (Pharmacia). Lane 1, purified RNA precursor; lane 2, GTP omitted, 5 mM MgCl2; lane 3, no MgCl2, 1 mM EDTA; lanes 4-11, reactions run in the presence of 0, 1, 5, 25, 50, 100, 200 or 500 mM MgCl2, respectively. O indicates origin; P, RNA precursor; I, linear intron; E1-E2, spliced RNA product; C, presumed circularized intron. Bands corresponding to the 5' exon (E1) and G-intron-3' exon (I-E2) are not visible on this exposure.
FIGS. 13A through 13D show the inhibition of intron splicing by antibiotics. All experiments were done with 660 nucleotide RNA precursor. In vitro splicing of [^32 P]RNA precursor was performed in the presence of 5 mM MgCl2 and 100 μM GTP (unless otherwise indicated) at 37° C. for 20 minutes as in FIG. 12. Splicing of unpurified transcripts extracted from SP6 RNA polymerase reactions was performed with 12.5 nM of [α-^32 P]GTP replacing non-radioactive GTP. Bands are identified as in FIG. 12. FIG. 13A: Inhibition by gentamicin and tetracycline. Purified [^32 P]RNA precursor splicing was performed as indicated. Lane 1, control without GTP; lane 2, complete reaction without antibiotics; lanes 3-7, gentamicin present at 50, 100, 200, 250 and 500 μM; lanes 8-12, tetracycline present at 10, 50, 100, 200, and 400 μM. FIG. 13B: Inhibition of intron splicing by gentamicin and tetracycline. Splicing of non-radioactive RNA was assayed in the presence of [^32 P]GTP with no antibiotic (lanes 1 and 7), with 50, 100, 200, 300, and 500 μM gentamicin (lanes 2-6), and with 50, 100, 200, and 400 μM tetracycline (lanes 8-11). FIG. 13C: Splicing inhibition by ethidium bromide. Reactions of [^32 P]RNA precursor were run in the presence of 10 μM GTP (except lane 1 which contained neither GTP nor ethidium bromide); lanes 2-7, reactions run in the presence of ethidium bromide at 0, 0.5, 1, 5, 10, and 25 μM, respectively. […] FIG. 13D: Inhibition of splicing by ethidium bromide, as measured by incorporation of [α-^32 P]GTP. Lanes 1-5, reactions run in the presence of 0, 0.5, 1, 5 and 25 μM ethidium bromide, respectively.
FIGS. 14A and 14B show the inhibition of intron splicing by pentamidine. Reactions were performed as in FIG. 13, with 660 nucleotide RNA precursor. FIG. 14A: Assays of splicing of [^32 P]RNA precursor. […]

[2] = system: Group I self-splicing intron from the 16S rRNA gene of P. carinii; assay: In vitro self-splicing of the intron from the 16S rRNA gene; assay type: biochemical, Pneumocystis carinii; settings: result in words
From the text: Inhibition by aminoglycosides of splicing of other group I introns has previously been described (55,61). […] Some radioactivity remaining at the gel origin and a decrease in precursor entering the gel in the presence of high levels of gentamicin (FIG. 13A) may reflect RNA binding by the antibiotic. […] This mechanism would be consistent with the lack of inhibition of splicing of group II introns by these agents (55,61).
Alternatively, the paired aromatic rings and/or positively charged moieties of pentamidine might act to distort the intron's secondary structure, which is critical to its catalytic function (63). […] If the ability of pentamidine analogues (49) to inhibit splicing correlates with in vivo activity against experimental PCP then this assay would be useful for this purpose.

[3] = system: Saccharomyces cerevisiae; settings: grown in glycerol versus fermentable sugars; cited from earlier work

Compound | inhibition of splicing of the 26S rRNA intron [1] | inhibition of splicing at 500 μM [1] | further results
CC[n+]1c(-c2ccccc2)c2cc(N)ccc2c2ccc(N)cc21 [ethidium bromide] | completely inhibiting splicing by either assay | – | –
gentamicin | inhibited splicing | – | sensitivity of splicing assayed by incorporation of [α-32P]GTP into I and I-E2 ([1]; compared with splicing of radioactive RNA precursor, 12.5 nM [α-32P]GTP): less sensitive
CN(C)C1C(=O)C(C(N)=O)=C(O)C2(O)C(=O)C3=C(O)c4c(O)cccc4C(C)(O)C3CC12 (centres unmarked) [tetracycline] | inhibits RNA splicing | – | mode of inhibition (kinetic analysis) [1]: non-competitive with GTP
CC1(C)S[C@@H]2[C@H](NC(=O)[C@H](N)c3ccccc3)C(=O)N2[C@H]1C(=O)O [Ampicillin] | – | failed to inhibit | –
[H]/N=C(/N)N[C@H]1[C@H](O)[C@@H](O)[C@H](O[C@@H]2O[C@@H](C)[C@](O)(C=O)[C@H]2O[C@@H]2O[C@@H](CO)[C@H](O)[C@@H](O)[C@@H]2NC)[C@@H](N/C(N)=N\[H])[C@@H]1O [streptomycin] | – | – | mode of inhibition (kinetic analysis) [1]: competition with guanosine
COc1ccc(C[C@H](N)C(=O)N[C@H]2[C@@H](O)[C@H](n3cnc4c(N(C)C)ncnc43)O[C@@H]2CO)cc1 [puromycin] | – | failed to inhibit splicing by either assay | –
N=C(N)c1ccc(OCCCCCOc2ccc(C(=N)N)cc2)cc1 [Pentamidine] | inhibited splicing | – | effect on the first step of the splicing reaction ([1]; kinetic analysis): acting on the first step; mode of inhibition (kinetic analysis) [1]: non-competitive; inhibition of splicing of the 16S rRNA intron [2]: inhibited splicing; sensitivity of growth to pentamidine [3]: more sensitive to pentamidine when grown in glycerol than in various fermentable sugars
NC(=O)NCCC[C@H](N)C(=O)O [citrulline] | no detectable inhibition | – | –
tri-arginine | – | – | potency relative to L-arginine / arginine ([1]; inhibition of splicing): at least 1,000 times
Nc1nc2c(ncn2[C@@H]2O[C@H](COP(=O)(O)OP(=O)(O)OP(=O)(O)O)[C@@H](O)[C@H]2O)c(=O)[nH]1 [GTP, guanosine triphosphate] | – | – | Km ([1]; in vitro splicing, 5 mM MgCl2, 37° C.): 3 µM
CN[C@@H]1[C@@H](O)[C@@H](O[C@@H]2[C@@H](O)[C@H](O[C@H]3O[C@H]([C@@H](C)O)[C@@H](O)[C@H](O)[C@H]3N)[C@@H](N)C[C@H]2N)OC[C@]1(C)O [G418] | – | failed to inhibit splicing | –
CCC[C@@H]1C[C@@H](C(=O)N[C@@H]([C@H]2O[C@H](SC)[C@H](O)[C@@H](O)[C@H]2O)[C@H](C)Cl)N(C)C1 [clindamycin] | – | failed to inhibit splicing by either assay | –
C[C@@H]1C[C@@H]([C@H](O)CC2CC(=O)NC(=O)C2)C(=O)[C@@H](C)C1 [cycloheximide] | – | failed to inhibit splicing by either assay | –
O=C(N[C@H](CO)[C@H](O)c1ccc([N+](=O)[O-])cc1)C(Cl)Cl [chloramphenicol] | – | failed to inhibit splicing by either assay | –
O=C(O)C1=CC(=C(c2ccc(O)c(C(=O)O)c2)c2ccc(O)c(C(=O)O)c2)C=CC1=O [aurintricarboxylic acid] | – | failed to inhibit splicing by either assay | –
N=C(N)NCCC[C@H](N)C(=O)O [arginine] | inhibited competitively by high concentrations | – | mode of inhibition (kinetic analysis) [1]: competitively
Nc1nc2c(ncn2[C@@H]2O[C@H](COP(=O)(O)O)[C@@H](O)[C@H]2O)c(=O)[nH]1 [GMP, guanosine monophosphate] | – | – | replacement of GTP in the splicing reaction [1]: replaceable by equal concentrations
Nc1nc2c(ncn2[C@@H]2O[C@H](COP(=O)(O)OP(=O)(O)O)[C@@H](O)[C@H]2O)c(=O)[nH]1 [GDP, guanosine diphosphate] | – | – | replacement of GTP in the splicing reaction [1]: replaceable by equal concentrations
N=C(N)NCCC[C@@H](N)C(=O)O [D-arginine] | greater for L-arginine than D-arginine | – | –
N=C(N)NCCC[C@H](N)C(=O)O [L-arginine] | greater for L-arginine than D-arginine | – | effect on the first step of the splicing reaction ([1]; kinetic analysis): inhibiting the first step; effect on the second step of the splicing reaction ([1]; kinetic analysis): activate the second step
